{"source": "patent US20190184069A1", "about": "“ANTIMICROBIAL COMPOSITIONS COMPRISING MINOCYCLINE AND DEGRADATION PRODUCTS OF OXIDIZED CELLULOSE” (Omrix Biopharmaceuticals Ltd., priority 2017, published 2019)", "key": {"[1]": {"tested_on": "S. aureus", "test": "Primary stage MIC measurement of antibiotic alone (OD 600 nm growth curves, 18 h)", "assay_type": "cell-based, Staphylococcus aureus", "source_text": "The following day, the turbidity of the actively-growing broth culture was adjusted with Calcium-adjusted Mueller Hinton broth II (MHBII) to be equivalent to that of a 0.5 McFarland standard (1×10^8 CFU/ml). The broth culture was maintained under ambient conditions prior to use.\nThe method used in this stage was based on the classic Minimum Inhibitory Concentration (MIC) measurements, as described by the Clinical and Laboratory Standards Institute (CLSI) document M07-A9: “Method for Dilution Antimicrobial Susceptibility Test for Bacteria that Grow Aerobically”. While classic MIC measurements require visual inspection of plates for bacterial growth after 18 hours, growth was monitored in the present study according to optical density (OD) at 600 nm, using an ELISA reader (MultiSkan™ FC ELISA reader, Thermo Fisher Scientific, Massachusetts, USA), thereby obtaining bacterial growth curves for tested antibiotic solutions.\nColumns 1 and 3-12: 100 μl of MHBII alone was added to each well.\n[…]: 200 μl of a solution of antibiotic in MHBII at the highest concentration to be tested was added to each well.\nA series of 2-fold dilutions was performed, wherein 100 μl of solution of antibiotic was withdrawn from each well of column 2, transferred to the corresponding well of column 3, and mixed.\nThe dilution was then repeated by transfer from column 3 to column 4, and so on, until column 11, when the 100 μl of solution of antibiotic withdrawn from each well of column 11 was discarded.\n(§1) The 5×10^6 CFU/ml stock suspension which had been prepared in advance was transferred into a reservoir and 10 μl of the stock suspension were added into each well of columns 2-11 using a multichannel pipette to obtain a final 5×10^5 CFU/ml suspension.\nThe plate was then incubated at 37° C. with shaking in the ELISA reader and the optical density at 600 nm was read every 20 minutes for a total of 18 hours.\nThe average OD reading obtained for each antibiotic concentration was calculated and plotted against time to obtain a growth curve.\nThe MIC was determined as the first antibiotic concentration at which […] by the end of the 18-hour period."}, "[2]": {"tested_on": "S. aureus", "test": "Secondary stage: bacterial growth (ET50/MIC) of antibiotics with or without extract of degradation products of ORC", "assay_type": "cell-based, Staphylococcus aureus", "details": "for Effect of addition of degradation products of ORC on the antibiotic activity: antibiotic with versus without ORC degradation products", "source_text": "ORC pads which had not been impregnated with antibiotic (referred to herein as “blank ORC pads”), were subjected to extraction and degradation in PBS for three hours at ambient temperature. Extract obtained from these blank ORC pads is referred to herein as “blank extract of degradation products of ORC”.\nBlank ORC pads were subjected to extraction and degradation in a solution of antibiotic in PBS. Extracts of degradation products obtained from blank ORC pads in a solution of antibiotic in PBS is referred to herein as “extracts of degradation products of blank ORC in antibiotic”.\nDue to the acidity of ORC, which provides some antibiotic effect, the size of the pad used was small i.e. approximately 1×1.5 inch, weighing between 65-75 mg (70 mg on average) in order to prevent the ORC from affecting the final pH of the assay and therefore the growth of the bacteria.\n15 ml tubes, each containing 3 ml of an antibiotic solution at a known concentration in sterile PBS, were prepared in duplicate.\nBlank ORC pads were subjected to extraction and degradation in the antibiotic solution by immersing the ORC pads in the antibiotic solution for 3-5 hours at ambient temperature on a roller mixer (Stuart, Cat#SRT9D).\nBlank extract of degradation products of ORC and extract in antibiotic of degradation products of ORC, prepared as described above, were diluted 10 folds in MHBII in sterile 15 ml capped tubes.\nas §1\nColumns 3 to 6, rows B to F, were filled with the Blank ORC extracted in antibiotic at decreasing concentrations 1 to 5, diluted 10 folds in MHBII. Each sample tested was placed in 4 well repeats for statistical results.\nColumns 7 to 10, rows B to F, were filled with the antibiotic solution (AB) at decreasing concentrations 1 to 5, diluted 10 folds in MHBII. Each sample tested was placed in 4 well repeats for statistical results.\nColumns 3 to 6, row G, were filled with the blank extract of degradation products of ORC (PBS-ORC) diluted 10 folds in MHBII.\nThe plate was incubated at 37° C. with shaking in the ELISA reader and the optical density at 600 nm was read every 20 minutes for a total of 18 hours.\nThe average and standard deviation for OD readings was calculated for each time point of the wells using Excel. The average values were plotted against time to obtain a graph of the bacterial growth curves in the presence of each of the antibiotics tested.\nIn some cases, the average OD was plotted for a single endpoint of 800 minutes for the various antibiotic treatments and controls.\nThe average values were also entered into the GraphPad Prism program (GraphPad Software Inc., CA, USA) in order to calculate the Effective Time 50 (ET50) i.e. the time, in minutes, required for the antibiotic to induce a response halfway between the baseline and maximum, where the maximum is the bacterial growth in MHBII with PBS. This provides a quantifiable measure of the efficacy of the antibiotics tested and enables comparison of the various samples tested."}, "[3]": {"tested_on": "S. aureus", "test": "Tertiary stage: antimicrobial activity (ET50/MIC) of extract of degradation products of antibiotic-impregnated ORC pads, single or combination", "assay_type": "cell-based, Staphylococcus aureus", "details": "impregnated on ORC pad together with 1.26 ng/ml minocycline", "description": "Solutions comprising different concentrations of antibiotics to be tested were prepared in methanol.\nBlank ORC pads of dimensions 1×1.5 inch, weighing between 65-75 mg (70 mg on average), in duplicate, were immersed in the antibiotic solutions and then dried using a rotary evaporator to provide extract of degradation products of antibiotic-impregnated ORC pads.\n15 ml test tubes containing 3 ml of sterile PBS were prepared, and the antibiotic-impregnated ORC pads were immersed in the tubes and incubated for 3-5 hours at ambient temperature on a roller mixer (Stuart, Cat#SRT9D).\nEach of the above extracts was filtered out using a sterile 0.8/0.2 μm syringe filter into a clean 15 ml tube. These extraction fluids are referred to herein as “extract of degradation products of antibiotic-impregnated ORC”.\nBriefly, ORC pads weighing on average 70 mg each were impregnated with the selected antibiotic. Extracts of degradation products of antibiotic-impregnated ORC were prepared by immersion and incubation in 3 ml of sterile PBS for 3 hours at ambient temperature. The ORC degeneration products were then removed, and any remaining ORC particles were filtered out using a […] syringe filter. This extraction fluid was then diluted 10-fold into Muller Hinton growth medium containing bacteria. Bacterial growth was monitored every 20 min for a total of 18 hours according to optical density (OD) at 600 nm, using an ELISA reader.\nSince the study included many possible combinations of two antibiotics, each with their own different concentration range, a matrix of possible antibiotic concentrations was designed, and degradation products of ORC were prepared accordingly (see Table 10). Since all the possible combinations could not be fitted into one 96 well plate, a series of MIC experiments were carried out."}, "[4]": {"tested_on": "S. aureus", "details": "cited from earlier work"}}, "note": "Entries after “also recorded” stand apart in the source; their conditions may differ.", "data": [{"compound": "CCC[C@@H]1C[C@@H](C(=O)N[C@@H]([C@H]2O[C@H](SC)[C@H](O)[C@@H](O)[C@H]2O)[C@H](C)Cl)N(C)C1", "note": "[Clindamycin, clindamycin]", "values": [{"measurement": "MIC as single antibiotics in the absence of ORC (first stage MIC results)", "setting": "[1]", "result": 62, "unit": "ng/mL"}, {"measurement": "Effect of addition of degradation products of ORC on the antibiotic activity", "setting": "[2]", "result": "no effect"}, {"measurement": "Clindamycin level sufficient for growth inhibition of S. aureus in combination", "setting": "[3]", "result": 8.9, "unit": "ng/mL"}]}, {"compound": "Gentamycin [Gentamicin]", "values": [{"measurement": "MIC values found in the present study (primary stage, Example 1)", "setting": "[1]; antibiotic alone, no ORC", "result": 0.25, "unit": "µg/mL"}, {"measurement": "Effect of addition of degradation products of ORC on the antibiotic activity", "setting": "[2]", "result": "reduction in the antibiotic activity; also recorded: decreased antibiotic activity; also recorded: lowering of the antibiotic activity; also recorded: impaired"}, {"measurement": "ET50", "setting": "[2]; gentamycin 0.1 μg/ml, +ORC degradation products", "result": 423.7, "unit": "min"}, {"measurement": "ET50", "setting": "[2]; gentamycin 0.1 μg/ml, −ORC", "result": 509.4, "unit": "min"}, {"measurement": "ET50", "setting": "[2]; gentamycin 0.3 μg/ml, +ORC degradation products", "result": 429.3, "unit": "min"}, {"measurement": "ET50", "setting": "[2]; gentamycin 0.3 μg/ml, −ORC", "result": 1360, "unit": "min"}, {"measurement": "ET50", "setting": "[2]; gentamycin 0.5 μg/ml, +ORC degradation products", "result": 423.1, "unit": "min"}, {"measurement": "ET50", "setting": "[2]; gentamycin 0.8 μg/ml, +ORC degradation products", "result": 422.7, "unit": "min"}, {"measurement": "ET50", "setting": "[2]; gentamycin 1 μg/ml, +ORC degradation products", "result": 446.6, "unit": "min"}, {"measurement": "MIC values for S. aureus according to the literature", "setting": "[4]", "result": "0.12 to 1", "unit": "µg/mL"}]}, {"compound": "CN(C)[C@@H]1C(O)=C(C(N)=O)C(=O)[C@@]2(O)C(O)=C3C(=O)c4c(O)cccc4[C@@](C)(O)[C@H]3C[C@@H]12", "note": "[Tetracycline]", "values": [{"measurement": "Effect of addition of degradation products of ORC on the antibiotic activity", "setting": "[2]", "result": "no effect"}, {"measurement": "ET50", "setting": "[2]; tetracycline 0.025 μg/ml, +ORC degradation products", "result": 517.7, "unit": "min"}, {"measurement": "ET50", "setting": "[2]; tetracycline 0.025 μg/ml, −ORC", "result": 531.1, "unit": "min"}, {"measurement": "ET50", "setting": "[2]; tetracycline 0.05 μg/ml, +ORC degradation products", "result": 741.1, "unit": "min"}, {"measurement": "ET50", "setting": "[2]; tetracycline 0.05 μg/ml, −ORC", "result": 989.9, "unit": "min"}, {"measurement": "ET50", "setting": "[2]; tetracycline 0.1 μg/ml, +ORC degradation products", "result": 1470, "unit": "min"}, {"measurement": "ET50", "setting": "[2]; tetracycline 0.1 μg/ml, −ORC", "result": 1889, "unit": "min"}, {"measurement": "ET50", "setting": "[2]; tetracycline 0.2 μg/ml, +ORC degradation products", "result": ">2000", "unit": "min"}, {"measurement": "ET50", "setting": "[2]; tetracycline 0.2 μg/ml, −ORC", "result": ">2000", "unit": "min"}, {"measurement": "ET50", "setting": "[2]; tetracycline 0.4 μg/ml, +ORC degradation products", "result": ">2000", "unit": "min"}, {"measurement": "ET50", "setting": "[2]; tetracycline 0.4 μg/ml, −ORC", "result": ">2000", "unit": "min"}]}]}
